Data published in patent publication US20050106100A1, “Compounds containing matrix metalloproteinase substrates and methods of their use” (priority 2003, published 2005).

How the values were obtained:
[1] = system: Aminopeptidase N; experiment: Aminopeptidase N cleavage of test substrates (HPLC); format: biochemical; details: 1 mM test substrate, 0.02 U APN, 37° C., 25 minutes
Procedure: Aminopeptidase N cleaves amino acids at the N-terminus of proteins and peptides attached to another amino acid. The final attachment in our test substrates consists of an amino acid linked to a hydrazide. The cleavage of this amino acid by aminopeptidases exposes the reactive hydrazide species. Our goal was to study the cleavage of amide bond between an amino acid and a hydrazide by aminopeptidase N. A stock solution of test substrates was prepared in 100% DMSO at a concentration of 25 mM. The stock soluton (6 μL) was added to buffer (50 mM Hepes/pH 7.5, 10 mM CaCl2, 0.1% Brij) for a final concentration of 1 mM test substrate in the reaction. To this reaction mix 0.02 U of the enzyme (APN) was added, the solution was mixed, and immediately 67.5 μL of the mix was transferred to HPLC vials containing 33.2 μL of acetic acid for t=0 minute measurement. The rest of the mix in the test tube was incubated at 37° C. for 25 minutes. At the 25 minutes time point 67.5 μL of the mix was transferred to the HPLC vial containing 33.2 μl of acetic acid for t=25 minute measurement. […] The peak areas were integrated and the substrate peak area was used to determine rate constant k in the following equation: K={(% hydrolyzed/100)*[S]}/[E]*[time] where • S=test substrate concentration in μmoles • E=aminopeptidase N concentration in units/ml • K=μmoles of substrate hydrolyzed/minute/unit enzyme
The procedures of Examples 63 and 64 were used to prepare these additional enamides. The ability of aminopeptidase-N (APN) to remove the terminal amino acid was determined by using the procedure described in Example 46.

[2] = system: Aminopeptidase N; experiment: as above; format: biochemical; details: n = 2; for Rate, hydrolysis of N-terminal residue by APN (value in parenthesis): enzyme concentration […] 10^3 U; for Rate, hydrolysis of N-terminal residue by APN: enzyme concentration […] 10^4 U
[3] = system: THP-1 cells; experiment: Lipid bilayer insertion / cell binding of test substrates; format: cell-based, human; details: live cell suspensions
Procedure: This assay was designed to study localization of test substrates in lipid bilayers of cells. THP-1 cell line a human monocytic cell line was used in this assay. THP-1 cells were washed with phosphate buffered saline (PBS) and 2×10^6 cells were used for each reaction in a 150 μL reaction volume. Test substrates were added to these cell suspensions to give a final concentration of 0.15 mM in the reaction. The reactions were incubated at 37° C. for 1 hour. The test compound in the supernatant was analyzed by HPLC and quantified. The level of compound in the supernatant in the presence and absence of cells was determined and the following ratio was generated: R=Level of compound in absence of cells/level of compound in the presence of cells
The ratio increases with increased binding to cells. A ratio of 1 denotes no binding to cells.

Row | Rate of hydrolysis (min^−1, U^−1) [1] | Compound | Rate, hydrolysis of N-terminal residue by APN (value in parenthesis) [2] | Rate, hydrolysis of N-terminal residue by APN [2] | other results
1 | 0.62 μmoles μmoles (min^−1, U^−1) | COc1ccc2cc(C(=O)NCCCCCC(=O)NNC(=O)[C@@H](N)CC(C)C)c(=O)oc2c1 [Example 9, N-((2S)-2-Amino-4-methylpentanoylamino)-6-[(7-methoxy-2-oxo(2H-chromen-3-yl))carbonylamino]hexanamide] |  |  | 
2 |  | CCC/C=C(\CCC)NC(=O)[C@H](C)NC(=O)[C@@H](N)CC(C)C [Example 332] | 0.802 mmol substrate · min^−1 · U enzym^−1 | 1.89 mmol substrate · min^−1 · U enzym^−1 | 
3 | 0.6 μmoles μmoles (min^−1, U^−1) | CC(C)C[C@H](N)C(=O)NNC(=O)c1ccc(CNC(=O)c2ccc(N/N=C/c3ccccc3S(=O)(=O)O)nc2)cc1 [Example 8, 2-[(1E)-2-({5-[N-({4-[N-((2S)-2-Amino-4-methylpentanoylamino)carbamoyl]phenyl}methyl)carbamoyl](2-pyridyl)}amino)-2-azavinyl]benzenesulfonic Acid] |  |  | 
4 |  | CCC/C=C(\CCC)NC(=O)[C@@H](N)CC(C)C [Example 333] | 0.209 mmol substrate · min^−1 · U enzym^−1 | 0.264 mmol substrate · min^−1 · U enzym^−1 | 
5 | 0 μmoles μmoles (min^−1, U^−1) | CC(C)C[C@H](N)C(=O)NNc1ccc(C(=O)NCCNC(=O)c2ccc(N/N=C/c3ccccc3S(=O)(=O)O)nc2)cc1 [Example 6, 2-{(1E)-2-[(5-{N-[2-({4-[((2S)-2-Amino-4-methylpentanoylamino)amino]phenyl}carbonylamino)ethyl]carbamoyl}(2-pyridyl))amino]-2-azavinyl}benzenesulfonic Acid] |  |  | 
6 |  | O=C(CCCCCCCc1ccc(O)cc1)NCCNC(=O)c1ccc(N/N=C/c2ccccc2S(=O)(=O)O)nc1 [Example 26, 2-((1E)-2-Aza-2-{[5-(N-{2-[8-(4-hydroxyphenyl)octanoylamino]ethyl}-carbamoyl)(2-pyridyl)]amino}vinyl)benzenesulfonic Acid] |  |  | association with cells (in words) [3]: will associate with cells
7 | 1.2 μmoles μmoles (min^−1, U^−1) | CC(C)C[C@H](N)C(=O)NNC(=O)c1ccc(N/N=C\c2ccccc2S(=O)(=O)O)nc1 [Example 7, 2-[2-({5-[N-((2S)-2-Amino-4-methylpentanoylamino)carbamoyl](2-pyridyl)}amino)(1Z)-2-azavinyl]benzenesulfonic Acid] |  |  | 
8 |  | CC(=O)NCCCCCC/C=C/NC(=O)[C@@H](N)CC(C)C.O=CO [Example 63, N-[(1E)-8-(Acetylamino)oct-1-enyl](2S)-2-amino-4-methylpentanamide, Formic Acid Salt] | 0.167 mmol substrate · min^−1 · U enzym^−1 | 0.202 mmol substrate · min^−1 · U enzym^−1 | 

Row | Compound | Rate of hydrolysis (min^−1, U^−1) [1] | Rate, hydrolysis of N-terminal residue by APN (value in parenthesis) [2] | Rate, hydrolysis of N-terminal residue by APN [2] | other results
9 | CC(C)C[C@H](N)C(=O)Nc1ccc(COC(=O)NNC(=O)CCCCCNC(=O)c2ccc(N/N=C/c3ccccc3S(=O)(=O)O)nc2)cc1 [Example 24, 2-((1E)-2-{[5-(N-{5-[N-({[4-((2S)-2-Smino-4-methylpentanoylamino)phenyl]methoxy}carbonylamino)carbamoyl]pentyl}carbamoyl)(2-pyridyl)]amino}-2-azavinyl)benzenesulfonic Acid] | 0.52 μmoles μmoles (min^−1, U^−1) |  |  | 
